# Test results taken from US20140213502A1, “CHEMICAL MODIFICATION OF APOLIPOPROTEIN MIMETIC PEPTIDES FOR THE PRODUCTION OF THERAPEUTIC AGENTS” (United States Department of Health and Human Services, priority 2011, published 2014).
# Where two headings read alike, the source gives them in different places. Bridge positions count the residues as written; N and C are the ends. Square brackets hold non-standard residues; d marks the D form. Ends that are not written are not given here. Peptide text beside a SMILES is read from it. * marks the point of attachment. Myristoyl = CCCCCCCCCCCCCC(=O)*; R8 = C=CCCCCCC[C@@](C)(N)C(=O)O; S5 = C=CCCC[C@](C)(N)C(=O)O
# Key:
# [1] = Helicity by circular dichroism (CD) spectroscopy; type: physicochemical; conditions: for helical (helicity by CD spectroscopy): 24° C., aqueous buffer (sodium phosphate pH 7.4), peptide 0.1 mg/mL; for Helicity at 90° C.: heat denaturation, CD spectroscopy
# Procedure: FIG. 1 depicts the primary sequence and information regarding the biophysical characterization of illustrative peptides discussed herein. […] X1=(R)-a-(7′-octanyl)Ala; X2=(S)-a-(4′ pentenyl)Ala. […] (dotted line) A10, (solid line) S1A10, (dashed line) S2A10.
# FIG. 5 depicts helicity of peptides as measured by CD-spectroscopy at 24° C.: (dotted line) 5A, (dashed line) acyl-5A.
# The helical nature of the peptides was determined by circular dichroism spectroscopy. Peptides (0.1 mg/mL) in sodium phosphate buffer (pH 7.4) were loaded into a quartz cuvette (d=0.2 cm path length) and CD spectra from 185 to 240 nm were recorded on a Jasco J715 spectropolarimeter at 24° C. Data were normalized by calculating the mean residue ellipticity (θ). Peptide thermostability was monitored at 220 nm by increasing temperature from 10° to 90° C.
# [2] = tested on: chymotrypsin; experiment: Susceptibility to proteolysis by chymotrypsin, loss of intact peptide by MALDI-TOF MS; type: in vitro ADME; conditions: for remaining at 24 h, 500 μg/ml: chymotrypsin (isolated protease), read-out: peptide remaining after digestion
# Procedure: (§1) FIG. 2 depicts information relating to peptide susceptibility to proteolysis. Peptides […] and […] at a final concentration of 500 μg/ml were incubated for the indicated times with either pepsin (0.5 μg/ml) in 10% acetic acid (pH 2.0) buffer (Panel A) or with chymotrypsin (0.5 μg/ml) in 10 mM NH4HCO3 (pH 7.4) buffer (Panel B), and loss of intact peptide was monitored by MALDI-TOF MS. Results are expressed as normalized area under the curve measurements relative to three internal standards. […] Several potential pepsin and/or chymotrypsin cleavage sites are found within and outside the linker region of the peptides […] and […]. […] and […] (5 mg/ml) were diluted 10× with either 10% acetic acid (pH 2), containing pepsin (0.5 μg/ml final) or in 10 mM NH4HCO3 (pH 7), containing chymotrypsin (0.5 μg/ml final). After incubation at 37° C., aliquots at various time points were removed and dried on a MALDI Anchor Chip target at 45° C. MALDI standards (Bombesin, ACTH 1-17, ACTH 18-39, Somastatin 28, CHCA in 50% ACN, 0.1% TFA) and matrix were added sequentially and allowed to dry between additions. Samples were analyzed on a Bruker AutoFlex III (Bruker Daltonics) in positive ion reflectron mode. Relative protein concentrations were determined from areas under the curve, using the MALDI standards as calibrators.
# [3] = tested on: pepsin; experiment: Susceptibility to proteolysis by pepsin, loss of intact peptide by MALDI-TOF MS; type: in vitro ADME; conditions: for remaining at 24 h, 500 μg/ml: pepsin (isolated protease), pepsin 0.5 μg/ml, pH 2, 37° C., read-out: peptide remaining after digestion
# Procedure: as §1
# [4] = tested on: aortic atherosclerosis; experiment: Atherosclerosis progression in a mouse model, en face analysis of aorta; type: in vivo; conditions: apoE^hypx SR-BI Ko mice, 200 ug/mL in drinking water, high fat (21%) diet 2 weeks
# Procedure: FIG. 8 depicts the results of testing the peptide […] on atherosclerosis progression in a mouse model of atherosclerosis. To test the ability of the stapled peptide variant of the last helix of apoA-T containing the long linker, […], it was added to the drinking water (200 ug/mL) of apoE^hypx SR-BI Ko mice. The mice were fed a high fat (21%) diet for 2-weeks and examined for aortic atherosclerosis by en face analysis.
# [5] = biological target: T1, SR-BI receptor (Homo sapiens, UniProt Q8WTV0); experiment: Cholesterol efflux, SR-BI transfected BHK cells; type: cell-based; conditions: 18 h, no phospholipid reconstitution
# T1 construct: expressed in transfected cells; host or cells: BHK cells
# T1 sequence (Q8WTV0 1-552): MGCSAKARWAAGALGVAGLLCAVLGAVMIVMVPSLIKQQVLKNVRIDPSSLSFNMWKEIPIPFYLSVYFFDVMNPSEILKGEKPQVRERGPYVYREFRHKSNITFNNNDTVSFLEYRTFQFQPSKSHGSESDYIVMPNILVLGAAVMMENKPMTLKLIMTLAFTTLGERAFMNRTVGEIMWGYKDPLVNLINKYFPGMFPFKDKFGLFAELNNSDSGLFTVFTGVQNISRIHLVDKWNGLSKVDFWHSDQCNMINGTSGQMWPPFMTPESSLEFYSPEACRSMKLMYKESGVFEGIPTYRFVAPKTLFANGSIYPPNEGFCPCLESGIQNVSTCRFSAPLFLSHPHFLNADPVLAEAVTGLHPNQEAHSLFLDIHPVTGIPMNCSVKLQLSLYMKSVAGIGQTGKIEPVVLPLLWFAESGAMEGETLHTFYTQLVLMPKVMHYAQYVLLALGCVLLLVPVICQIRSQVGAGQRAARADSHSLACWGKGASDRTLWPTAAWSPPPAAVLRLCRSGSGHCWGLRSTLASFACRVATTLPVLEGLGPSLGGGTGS
# Procedure: (§2) FIG. 4 depicts the results of testing the effect of the peptides on cholesterol efflux. Peptides A10, S1A10, S2A10, 5A at the indicated concentration were incubated with (Panel A) BHK control cells, (Panel B) ABC-A1 transfected BHK cells, (Panel C) ABC-G1 transfected BHK cells, and (Panel D) SR-B1 transfected BHK cells and monitored for cholesterol efflux. Percent of cholesterol efflux over 18 h is expressed as mean±SD of triplicate determinations.
# (§3) The ability of the three peptides and the bi-helical 5A peptide to promote cholesterol efflux was tested on BHK cells stably transfected with human ABCA1, ABCG1 or the human SRBI receptor (FIGS. 5 and 6). Cholesterol efflux studies were performed, as described previously. Control BHK cells and BHK cells stably transfected with either human ABCA1, ABCG1 or SR-BI were radiolabeled with [^3H] cholesterol for 24 h, washed and then treated with the indicated concentration of peptides for 18 h. Percent efflux was calculated by subtracting the radioactive counts in blank medium (alpha-minimal essential media plus 10 μg/ml bovine serum albumin) from the radioactive counts in the presence of a peptide and then dividing the result by the sum of the radioactive counts in the medium plus the cell fraction.
# [6] = biological target: T2, ABCA1 transporter (Homo sapiens, UniProt O95477); experiment: Cholesterol efflux, BHK cells stably transfected with human ABCA1; type: cell-based; conditions: 18 h
# T2 construct: expressed in transfected cells; host or cells: BHK cells
# Procedure: as §2, §3
# [7] = type: physicochemical
# Procedure: FIG. 3 depicts Dimyristoyl phosphatidyl choline (DMPC) vesicle solubilization by the indicated peptides. Peptides A10, S1A10 and S2A10 at a final concentration of 33 μg/mL or phosphate buffer saline (PBS) was incubated with DMPC vehicles (200 μg/mL) and monitored for turbidity at 1 min. intervals.
# A phospholipid vesicle solubilization assay was undertaken to assess the ability of the peptides to act like detergents. Dimyristoyl phosphatidyl choline (DMPC) vesicles were prepared by resuspension of dried DMPC with PBS and vortexing for 5 min. Changes in light scattering upon peptide addition were monitored at 24° C. every minute for 1 h at 660 nm, with shaking in a Perkin Elmer plate reader.
# [8] = biological target: T3, ABCG1 transporter (Homo sapiens, UniProt P45844); experiment: Cholesterol efflux, ABCG1 transfected BHK cells; type: cell-based; conditions: 18 h, no phospholipid reconstitution
# T3 construct: expressed in transfected cells; host or cells: BHK cells
# Procedure: as §2, §3
# [9] = cited from earlier work
# [10] = Oligomer formation in aqueous solution; type: physicochemical
# [11] = Effect of acyl-5A on serum lipid profile of mice; type: in vivo; conditions: CS7BL/6 mice, 30 mg/kg intravenously in saline, relative to baseline
# Procedure: FIG. 7 depicts the results of testing acyl-5A on scrum lipid values in mice. Acyl-5A was injected intravenously in CS7BL/6 mice (n=4) at a dose of 30 mg/kg in saline, and serum was measured for total cholesterol (Panel A), cholesteryl esters (Panel B), and free cholesterol (Panel C) at the indicated, time points. Mean of results are expressed as % of baseline.
# In FIG. 7, the results of testing the effect of acyl-5A on the serum lipid profile of mice are shown.
# [12] = chymotrypsin 0.5 μg/ml, 10 mM NH4HCO3 (pH 7), 37° C.
# T2 sequence (O95477 whole entry): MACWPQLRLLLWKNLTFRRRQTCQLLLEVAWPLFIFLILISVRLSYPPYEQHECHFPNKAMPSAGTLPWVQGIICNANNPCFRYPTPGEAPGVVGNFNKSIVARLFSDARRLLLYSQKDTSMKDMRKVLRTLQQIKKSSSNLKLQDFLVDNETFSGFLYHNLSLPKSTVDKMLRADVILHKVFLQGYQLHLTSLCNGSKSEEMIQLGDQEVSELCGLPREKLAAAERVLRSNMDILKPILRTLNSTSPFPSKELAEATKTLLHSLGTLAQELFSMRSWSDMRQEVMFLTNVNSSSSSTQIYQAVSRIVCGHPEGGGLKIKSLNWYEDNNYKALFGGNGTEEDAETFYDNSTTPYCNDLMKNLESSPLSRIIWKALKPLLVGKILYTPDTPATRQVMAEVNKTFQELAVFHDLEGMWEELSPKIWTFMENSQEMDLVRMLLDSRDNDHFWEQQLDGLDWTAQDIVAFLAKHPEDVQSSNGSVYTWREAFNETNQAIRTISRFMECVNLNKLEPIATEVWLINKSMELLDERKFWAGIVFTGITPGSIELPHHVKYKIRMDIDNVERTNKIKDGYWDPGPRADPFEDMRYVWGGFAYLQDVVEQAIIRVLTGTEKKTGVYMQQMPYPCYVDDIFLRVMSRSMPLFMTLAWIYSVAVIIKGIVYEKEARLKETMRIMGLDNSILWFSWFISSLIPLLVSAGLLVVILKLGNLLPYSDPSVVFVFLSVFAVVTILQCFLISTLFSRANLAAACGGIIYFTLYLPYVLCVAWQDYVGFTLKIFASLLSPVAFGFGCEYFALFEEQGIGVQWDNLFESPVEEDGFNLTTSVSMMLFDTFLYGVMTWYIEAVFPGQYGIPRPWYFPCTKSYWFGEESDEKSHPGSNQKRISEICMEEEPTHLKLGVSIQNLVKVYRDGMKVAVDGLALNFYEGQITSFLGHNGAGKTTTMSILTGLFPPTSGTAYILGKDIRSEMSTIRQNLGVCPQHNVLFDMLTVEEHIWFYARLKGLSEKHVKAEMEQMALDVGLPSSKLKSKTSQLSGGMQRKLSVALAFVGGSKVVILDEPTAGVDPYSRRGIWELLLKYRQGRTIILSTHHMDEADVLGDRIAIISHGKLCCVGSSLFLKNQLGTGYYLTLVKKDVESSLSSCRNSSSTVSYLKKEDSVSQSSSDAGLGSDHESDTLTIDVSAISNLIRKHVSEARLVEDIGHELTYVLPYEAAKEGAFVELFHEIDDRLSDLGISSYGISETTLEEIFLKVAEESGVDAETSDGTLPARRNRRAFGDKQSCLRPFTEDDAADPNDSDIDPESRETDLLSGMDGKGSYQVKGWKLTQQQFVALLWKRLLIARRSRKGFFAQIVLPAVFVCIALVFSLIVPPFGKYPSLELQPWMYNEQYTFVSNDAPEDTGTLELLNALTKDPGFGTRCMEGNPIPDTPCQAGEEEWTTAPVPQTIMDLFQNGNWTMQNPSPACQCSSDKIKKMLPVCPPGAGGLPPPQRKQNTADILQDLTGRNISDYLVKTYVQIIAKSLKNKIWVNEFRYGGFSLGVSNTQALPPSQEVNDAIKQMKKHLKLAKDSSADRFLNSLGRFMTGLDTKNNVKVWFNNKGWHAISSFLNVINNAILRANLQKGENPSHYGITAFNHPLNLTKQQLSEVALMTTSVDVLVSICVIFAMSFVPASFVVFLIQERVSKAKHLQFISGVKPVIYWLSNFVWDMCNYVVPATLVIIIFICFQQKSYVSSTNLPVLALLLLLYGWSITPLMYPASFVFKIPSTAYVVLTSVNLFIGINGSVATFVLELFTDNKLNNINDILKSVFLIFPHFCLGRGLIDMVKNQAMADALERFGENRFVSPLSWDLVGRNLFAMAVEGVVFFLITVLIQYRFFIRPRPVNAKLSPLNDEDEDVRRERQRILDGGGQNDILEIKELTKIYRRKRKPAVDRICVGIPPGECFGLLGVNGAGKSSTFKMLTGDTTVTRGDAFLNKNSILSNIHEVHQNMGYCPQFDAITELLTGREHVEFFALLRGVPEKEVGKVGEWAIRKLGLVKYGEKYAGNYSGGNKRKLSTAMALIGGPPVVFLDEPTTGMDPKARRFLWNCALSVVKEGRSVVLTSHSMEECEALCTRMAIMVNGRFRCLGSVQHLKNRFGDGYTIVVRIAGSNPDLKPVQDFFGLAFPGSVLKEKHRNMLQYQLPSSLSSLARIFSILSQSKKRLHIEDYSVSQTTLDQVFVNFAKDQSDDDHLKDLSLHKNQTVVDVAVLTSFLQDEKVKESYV
compound,measurement,setting,value
CC(=O)N[C@H](C(=O)N[C@@H](CC(C)C)C(=O)N[C@@H](CCC(=O)O)C(=O)N[C@@H](CO)C(=O)N[C@@H](Cc1ccccc1)C(=O)N[C@@H](CCCCN)C(=O)N[C@H](C(=O)N[C@@H](CO)C(=O)N[C@]1(C)CCCCCCC=CCCCCCC[C@](C)(C(=O)N[C@@H](CCC(=O)O)C(=O)N[C@@H](CCC(=O)O)C(=O)N[C@@H](Cc2ccc(O)cc2)C(=O)N[C@H](C(=O)N[C@@H](CCCCN)C(=O)N[C@@H](CCCCN)C(=O)N[C@@H](CC(C)C)C(=O)N[C@@H](CC(N)=O)C(=O)N[C@H](C(=O)N[C@@H](CCC(N)=O)C(N)=O)[C@@H](C)O)[C@@H](C)O)NC(=O)[C@H](C)NC(=O)[C@H](CO)NC(=O)[C@H](CC(C)C)NC1=O)C(C)C)C(C)C [S1A10] (Ac-VLESFKVS[R8]LSA[R8]EEYTKKLNTQ-NH2; staple 9-13; N-terminus and C-terminus assumed),helical (helicity by CD spectroscopy),[1],62%
same,Helicity at 90° C.,[1],25%
same,"remaining at 24 h, 500 μg/ml",[2]; [12],0.6%
same,"remaining at 24 h, 500 μg/ml",[3],0.4%
CC(=O)N[C@H](C(=O)N[C@@H](CC(C)C)C(=O)N[C@@H](CCC(=O)O)C(=O)N[C@@H](CO)C(=O)N[C@@H](Cc1ccccc1)C(=O)N[C@@H](CCCCN)C(=O)N[C@H](C(=O)N[C@@H](CO)C(=O)N[C@@]1(C)CCCC=CCCCCCC[C@](C)(C(=O)N[C@H](C(=O)N[C@@H](CCCCN)C(=O)N[C@@H](CCCCN)C(=O)N[C@@H](CC(C)C)C(=O)N[C@@H](CC(N)=O)C(=O)N[C@H](C(=O)N[C@@H](CCC(N)=O)C(N)=O)[C@@H](C)O)[C@@H](C)O)NC(=O)[C@H](CCC(=O)O)NC(=O)[C@H](CCC(=O)O)NC(=O)[C@H](CC(C)C)NC(=O)[C@H](C)NC(=O)[C@H](CO)NC(=O)[C@H](CC(C)C)NC1=O)C(C)C)C(C)C [S2A10] (Ac-VLESFKVS[S5]LSALEE[R8]TKKLNTQ-NH2; staple 9-16; N-terminus and C-terminus assumed),helical (helicity by CD spectroscopy),[1],97%
same,Helicity at 90° C.,[1],48%
same,decrease in % area coverage by atherosclerotic plaques,[4],> 2 fold
same,resistance to proteolysis by chymotrypsin (in words),[2]; [12],less sensitive to chymotrypsin than S1A10
same,"remaining at 24 h, 500 μg/ml",[2]; [12],3.8%
same,"remaining at 24 h, 500 μg/ml",[3],12.2%
"Ac-VLESFKVSFLSALEEYTKKLNTQ-NH2 [A10, reference compound]",helical (helicity by CD spectroscopy),[1],17%
same,Helicity at 90° C.,[1],11%
same,cholesterol efflux (in words),[5],ineffective
same,cholesterol efflux by the ABCA1 transporter (in words),[6],ineffective
same,"remaining at 0.5 h, 500 μg/ml","[2]; isolated enzyme chymotrypsin, pH 7",< 5%
same,"remaining at 0.5 h, 500 μg/ml","[3]; isolated enzyme pepsin, pH 2",< 5%
same,"DMPC vesicle solubilization (turbidity, in words)",[7],"some initial solubilization of the DMPC vesicles, but at later time points, the turbidity of the solution increased"
same,cholesterol efflux (in words),[8],ineffective
apoA-I: the main protein in High Density Lipoprotein (HDL),helical,[9]; associated with lipids,over 80%
same,helical,[9]; lipid-free state,about 20%
myrstic acid GGGDWLKAFYDKVAEKLKEAFPDWAKAAYDKAAEKAKEAA (Myristoyl-GGGDWLKAFYDKVAEKLKEAFPDWAKAAYDKAAEKAKEAA) [acyl-5A],helical (helicity by CD spectroscopy),[1],36.7%
same,peptides per complex (oligomer),[10],approximately 10 peptides per complex
same,increase in serum total cholesterol,[11],approximately 20%
same,increase in serum free cholesterol,[11]; found primarily on HDL,> 2 fold
